Data: ChEMBL document CHEMBL5696443 (Clin Cancer Res, 2016)
Active and inactive are the calls of the source. The rule behind the calls is not given here.

Assays:
[1] = molecular target: Testis-specific serine/threonine-protein kinase 2 (Homo sapiens, UniProt Q96PF2); assay: Inhibition of human TSSK2 using KKKVSRSGLYRSPSMPENLNRPR as substrate in presence of [gamma33P]-ATP by HotSpot assay
[2] = molecular target: Mitogen-activated protein kinase kinase kinase 9 (Homo sapiens, UniProt P80192); assay: Inhibition of human MAP3K9 using casein as substrate in presence of [gamma33P]-ATP by HotSpot assay
Mitogen-activated protein kinase kinase kinase 9, sequence (P80192 whole entry): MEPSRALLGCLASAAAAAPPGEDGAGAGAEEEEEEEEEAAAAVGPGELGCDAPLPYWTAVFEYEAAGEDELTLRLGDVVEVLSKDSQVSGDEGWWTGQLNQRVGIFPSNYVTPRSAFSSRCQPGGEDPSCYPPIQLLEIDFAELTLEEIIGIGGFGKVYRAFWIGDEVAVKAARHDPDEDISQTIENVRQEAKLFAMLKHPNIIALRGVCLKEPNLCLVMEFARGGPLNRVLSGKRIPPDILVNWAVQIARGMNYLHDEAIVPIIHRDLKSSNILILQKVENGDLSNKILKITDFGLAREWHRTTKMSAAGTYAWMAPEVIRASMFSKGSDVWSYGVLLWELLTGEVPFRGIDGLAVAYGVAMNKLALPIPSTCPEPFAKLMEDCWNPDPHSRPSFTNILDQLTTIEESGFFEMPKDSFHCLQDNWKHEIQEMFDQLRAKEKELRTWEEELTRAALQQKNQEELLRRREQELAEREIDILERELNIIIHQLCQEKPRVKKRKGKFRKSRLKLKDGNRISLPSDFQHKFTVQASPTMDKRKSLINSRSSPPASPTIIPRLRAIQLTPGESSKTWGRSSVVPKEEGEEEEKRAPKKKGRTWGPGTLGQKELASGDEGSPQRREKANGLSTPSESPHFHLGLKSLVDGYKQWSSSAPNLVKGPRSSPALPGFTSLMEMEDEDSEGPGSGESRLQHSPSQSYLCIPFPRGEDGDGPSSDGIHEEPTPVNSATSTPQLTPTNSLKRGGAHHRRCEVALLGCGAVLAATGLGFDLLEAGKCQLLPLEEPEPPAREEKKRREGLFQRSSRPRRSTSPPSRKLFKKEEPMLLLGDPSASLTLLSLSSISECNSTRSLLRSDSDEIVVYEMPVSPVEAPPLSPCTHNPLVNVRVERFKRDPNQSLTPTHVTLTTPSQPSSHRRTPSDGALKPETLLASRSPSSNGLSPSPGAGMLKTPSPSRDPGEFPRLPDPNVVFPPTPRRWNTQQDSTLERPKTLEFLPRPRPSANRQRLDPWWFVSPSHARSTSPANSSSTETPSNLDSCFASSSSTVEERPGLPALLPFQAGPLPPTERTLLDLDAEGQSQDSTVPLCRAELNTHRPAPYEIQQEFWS

[3] = molecular target: Vascular endothelial growth factor receptor 2 (Homo sapiens, UniProt P35968); assay: Inhibition of human VEGFR2 using poly (Glu, Tyr)4:1 as substrate in presence of [gamma33P]-ATP by HotSpot assay
Vascular endothelial growth factor receptor 2, sequence (P35968 whole entry): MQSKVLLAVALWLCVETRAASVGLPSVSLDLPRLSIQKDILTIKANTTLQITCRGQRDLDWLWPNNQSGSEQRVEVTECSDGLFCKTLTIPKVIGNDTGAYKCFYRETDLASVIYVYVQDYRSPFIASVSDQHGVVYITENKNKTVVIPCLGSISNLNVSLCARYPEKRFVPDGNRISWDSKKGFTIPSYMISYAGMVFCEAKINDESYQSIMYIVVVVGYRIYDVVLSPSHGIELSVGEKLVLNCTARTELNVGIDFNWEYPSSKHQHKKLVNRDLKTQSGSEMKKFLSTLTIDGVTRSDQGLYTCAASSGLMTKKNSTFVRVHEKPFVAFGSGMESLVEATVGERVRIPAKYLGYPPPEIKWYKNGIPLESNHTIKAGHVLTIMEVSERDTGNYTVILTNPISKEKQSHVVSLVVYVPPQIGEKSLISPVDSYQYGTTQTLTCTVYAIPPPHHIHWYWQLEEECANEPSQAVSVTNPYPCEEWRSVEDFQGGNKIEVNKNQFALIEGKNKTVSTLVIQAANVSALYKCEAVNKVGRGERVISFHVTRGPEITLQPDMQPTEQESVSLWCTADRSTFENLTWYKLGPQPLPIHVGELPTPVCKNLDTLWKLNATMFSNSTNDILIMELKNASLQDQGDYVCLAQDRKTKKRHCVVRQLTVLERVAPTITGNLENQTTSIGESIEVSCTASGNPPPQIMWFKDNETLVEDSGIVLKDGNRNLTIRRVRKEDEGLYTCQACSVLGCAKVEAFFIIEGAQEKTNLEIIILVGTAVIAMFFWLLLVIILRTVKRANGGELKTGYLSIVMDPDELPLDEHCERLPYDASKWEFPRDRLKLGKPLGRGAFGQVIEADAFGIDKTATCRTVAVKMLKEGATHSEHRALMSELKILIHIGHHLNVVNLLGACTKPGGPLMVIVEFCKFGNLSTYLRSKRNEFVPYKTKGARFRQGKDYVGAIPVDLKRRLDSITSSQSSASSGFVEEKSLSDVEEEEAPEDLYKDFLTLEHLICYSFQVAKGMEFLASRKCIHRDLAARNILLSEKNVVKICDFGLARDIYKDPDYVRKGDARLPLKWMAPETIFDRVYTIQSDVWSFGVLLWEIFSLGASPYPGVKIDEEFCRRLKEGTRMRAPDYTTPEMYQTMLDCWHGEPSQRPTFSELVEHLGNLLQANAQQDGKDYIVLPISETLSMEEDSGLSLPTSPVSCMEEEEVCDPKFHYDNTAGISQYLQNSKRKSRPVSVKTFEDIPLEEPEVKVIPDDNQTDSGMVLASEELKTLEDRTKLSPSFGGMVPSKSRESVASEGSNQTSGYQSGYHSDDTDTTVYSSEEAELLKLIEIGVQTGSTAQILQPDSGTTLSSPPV

[4] = molecular target: Ephrin type-A receptor 1 (Homo sapiens, UniProt P21709); assay: Inhibition of human EPHA1 using poly (Glu, Tyr)4:1 as substrate in presence of [gamma33P]-ATP by HotSpot assay
Ephrin type-A receptor 1, sequence (P21709 whole entry): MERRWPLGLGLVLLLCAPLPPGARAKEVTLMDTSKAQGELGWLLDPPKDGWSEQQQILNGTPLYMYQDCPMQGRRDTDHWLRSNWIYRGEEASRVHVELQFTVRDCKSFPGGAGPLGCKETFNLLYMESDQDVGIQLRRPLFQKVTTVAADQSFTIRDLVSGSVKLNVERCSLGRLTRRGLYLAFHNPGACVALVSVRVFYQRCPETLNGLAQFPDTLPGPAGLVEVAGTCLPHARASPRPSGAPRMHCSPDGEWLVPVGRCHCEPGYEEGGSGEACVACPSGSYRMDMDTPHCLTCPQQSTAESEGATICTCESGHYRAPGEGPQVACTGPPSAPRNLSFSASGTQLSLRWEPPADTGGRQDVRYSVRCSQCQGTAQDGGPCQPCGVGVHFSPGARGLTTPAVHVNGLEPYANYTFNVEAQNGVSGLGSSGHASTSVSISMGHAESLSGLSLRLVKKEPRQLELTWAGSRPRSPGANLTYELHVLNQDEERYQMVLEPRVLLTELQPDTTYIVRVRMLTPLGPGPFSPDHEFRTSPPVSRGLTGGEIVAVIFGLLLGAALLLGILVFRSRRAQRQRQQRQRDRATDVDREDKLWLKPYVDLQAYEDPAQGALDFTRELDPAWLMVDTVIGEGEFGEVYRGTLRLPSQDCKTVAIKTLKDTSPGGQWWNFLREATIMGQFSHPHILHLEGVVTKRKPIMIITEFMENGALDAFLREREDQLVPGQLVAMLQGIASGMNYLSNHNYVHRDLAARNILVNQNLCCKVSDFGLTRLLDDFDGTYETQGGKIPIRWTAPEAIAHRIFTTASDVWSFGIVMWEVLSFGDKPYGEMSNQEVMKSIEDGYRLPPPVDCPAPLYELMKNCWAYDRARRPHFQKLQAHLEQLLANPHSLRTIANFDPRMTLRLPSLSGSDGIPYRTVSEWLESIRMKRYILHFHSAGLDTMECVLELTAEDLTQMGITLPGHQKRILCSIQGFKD

[5] = molecular target: BDNF/NT-3 growth factors receptor (Homo sapiens, UniProt Q16620); assay: Inhibition of human NTRK2 using poly (Glu, Tyr)4:1 as substrate in presence of [gamma33P]-ATP by HotSpot assay
[6] = molecular target: Beta-adrenergic receptor kinase 1 (Homo sapiens) (UniProt P25098); assay: Inhibition of human ADRBK1 at 1 uM using casein as substrate in presence of [gamma33P]-ATP by HotSpot assay relative to control
[7] = molecular target: Calcium/calmodulin-dependent protein kinase type II subunit beta (Homo sapiens) (UniProt Q13554); assay: Inhibition of human CAMK2b at 1 uM using KKALRRQETVDAL as substrate in presence of [gamma33P]-ATP by HotSpot assay relative to control
[8] = molecular target: CDK6/cyclin D1 (Homo sapiens) (UniProt P24385+Q00534); assay: Inhibition of human CDK6/CyclinD1 at 1 uM using RB protein as substrate in presence of [gamma33P]-ATP by HotSpot assay relative to control; type: protein-complex assay
[9] = molecular target: Death-associated protein kinase 1 (Homo sapiens) (UniProt P53355); assay: Inhibition of human DAPK1 at 1 uM using KKLNRTLSFAEPG as substrate in presence of [gamma33P]-ATP by HotSpot assay relative to control
Death-associated protein kinase 1 (Homo sapiens), sequence (P53355 whole entry, looked up): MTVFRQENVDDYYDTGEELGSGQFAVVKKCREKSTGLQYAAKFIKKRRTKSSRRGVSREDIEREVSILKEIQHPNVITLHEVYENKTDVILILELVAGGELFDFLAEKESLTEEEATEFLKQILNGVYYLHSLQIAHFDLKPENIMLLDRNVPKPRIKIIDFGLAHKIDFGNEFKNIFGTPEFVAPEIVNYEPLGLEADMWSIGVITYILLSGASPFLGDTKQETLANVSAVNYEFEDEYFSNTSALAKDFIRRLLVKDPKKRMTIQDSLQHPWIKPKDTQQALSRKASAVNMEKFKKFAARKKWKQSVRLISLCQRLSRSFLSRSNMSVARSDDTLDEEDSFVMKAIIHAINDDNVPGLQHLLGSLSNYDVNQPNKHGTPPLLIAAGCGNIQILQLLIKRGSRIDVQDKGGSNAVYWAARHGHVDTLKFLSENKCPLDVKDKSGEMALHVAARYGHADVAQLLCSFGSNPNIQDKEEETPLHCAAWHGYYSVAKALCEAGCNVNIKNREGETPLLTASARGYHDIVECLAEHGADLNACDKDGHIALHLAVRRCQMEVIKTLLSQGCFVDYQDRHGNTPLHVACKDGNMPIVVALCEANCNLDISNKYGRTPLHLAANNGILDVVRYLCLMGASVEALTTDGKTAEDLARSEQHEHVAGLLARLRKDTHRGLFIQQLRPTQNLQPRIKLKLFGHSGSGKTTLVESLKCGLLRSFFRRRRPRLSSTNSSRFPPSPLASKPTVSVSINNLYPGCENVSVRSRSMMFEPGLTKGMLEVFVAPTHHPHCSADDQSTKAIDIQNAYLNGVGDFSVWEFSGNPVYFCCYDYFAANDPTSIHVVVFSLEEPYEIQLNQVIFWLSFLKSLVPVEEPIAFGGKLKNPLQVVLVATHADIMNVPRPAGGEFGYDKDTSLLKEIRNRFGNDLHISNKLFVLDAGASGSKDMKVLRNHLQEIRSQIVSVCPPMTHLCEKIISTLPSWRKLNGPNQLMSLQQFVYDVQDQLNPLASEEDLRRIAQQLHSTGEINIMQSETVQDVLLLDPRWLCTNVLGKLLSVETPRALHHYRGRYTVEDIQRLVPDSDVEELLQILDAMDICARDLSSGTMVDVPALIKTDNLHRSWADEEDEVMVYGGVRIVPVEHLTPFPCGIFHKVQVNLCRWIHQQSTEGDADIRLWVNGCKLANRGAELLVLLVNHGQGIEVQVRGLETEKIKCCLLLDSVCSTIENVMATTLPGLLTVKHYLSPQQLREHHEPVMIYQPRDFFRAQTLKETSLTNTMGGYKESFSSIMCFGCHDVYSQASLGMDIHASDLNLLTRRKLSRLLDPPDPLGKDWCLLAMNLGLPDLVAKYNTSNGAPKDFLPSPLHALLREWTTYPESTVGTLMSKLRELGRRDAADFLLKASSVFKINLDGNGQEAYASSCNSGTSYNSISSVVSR

[10] = molecular target: Death-associated protein kinase 2 (Homo sapiens) (UniProt Q9UIK4); assay: Inhibition of human DAPK2 at 1 uM using KKLNRTLSFAEPG as substrate in presence of [gamma33P]-ATP by HotSpot assay relative to control
[11] = molecular target: Serine/threonine-protein kinase DCLK2 (Homo sapiens) (UniProt Q8N568); assay: Inhibition of human DCLK2 at 1 uM using KKLNRTLSFAEPG as substrate in presence of [gamma33P]-ATP by HotSpot assay relative to control
[12] = molecular target: Myotonin-protein kinase (Homo sapiens) (UniProt Q09013); assay: Inhibition of human DMPK at 1 uM using KKRNRRLSVA as substrate in presence of [gamma33P]-ATP by HotSpot assay relative to control
[13] = molecular target: Glycogen synthase kinase-3 beta (Homo sapiens) (UniProt P49841); assay: Inhibition of human GSK3beta at 1 uM using YRRAAVPPSPSLSRHSSPHQ(pS)EDEEE as substrate in presence of [gamma33P]-ATP by HotSpot assay relative to control
[14] = molecular target: Mitogen-activated protein kinase kinase kinase 5 (Homo sapiens) (UniProt Q99683); assay: Inhibition of human MAP3K5 at 1 uM using MBP as substrate in presence of [gamma33P]-ATP by HotSpot assay relative to control
[15] = molecular target: Mitogen-activated protein kinase 10 (Homo sapiens) (UniProt P53779); assay: Inhibition of human MAPK10 at 1 uM using ATF2 as substrate in presence of [gamma33P]-ATP by HotSpot assay relative to control
[16] = molecular target: Serine/threonine-protein kinase PAK 3 (Homo sapiens) (UniProt O75914); assay: Inhibition of human PAK3 at 1 uM using RRRLSFAEPG as substrate in presence of [gamma33P]-ATP by HotSpot assay relative to control
[17] = molecular target: Serine/threonine-protein kinase PAK 6 (Homo sapiens) (UniProt Q9NQU5); assay: Inhibition of human PAK6 at 1 uM using RRRLSFAEPG as substrate in presence of [gamma33P]-ATP by HotSpot assay relative to control
[18] = test system: Platelet-derived growth factor receptor alpha (Homo sapiens), P16234 [V561D]; assay: Inhibition of human PDGFRalpha V561D mutant at 1 uM using poly (Glu, Tyr)4:1 as substrate in presence of [gamma33P]-ATP by HotSpot assay relative to control
[19] = species on record: Homo sapiens; assay: Inhibition of human PKA at 1 uM using LCGRTGRRNSI as substrate in presence of [gamma33P]-ATP by HotSpot assay relative to control
[20] = molecular target: Serine/threonine-protein kinase WNK2 (Homo sapiens) (UniProt Q9Y3S1); assay: Inhibition of human WNK2 at 1 uM using MBP as substrate in presence of [gamma33P]-ATP by HotSpot assay relative to control
[21] = molecular target: Mitogen-activated protein kinase kinase kinase 20 (Homo sapiens) (UniProt Q9NYL2); assay: Inhibition of human ZAK at 1 uM using MBP as substrate in presence of [gamma33P]-ATP by HotSpot assay relative to control
[22] = Average plasma concentration in CB-17/SCID mouse implanted with mouse BaF3 cells expressing EML4-ALK G1202R mutant at 50 mg/kg, po administered once daily for 7 days by LC-MS/MS analysis; type: ADME, organism-based; settings: in vivo, 168 h, time 7 day
[23] = test system: EML4-ALK (Homo sapiens), Q9UM73+Q9HC35 [I1171N]; settings: BaF3, time 3-5 weeks
[24] = test system: EML4-ALK (Homo sapiens), Q9UM73+Q9HC35 [F1174C]; settings: BaF3, time 3-5 weeks
[25] = test system: EML4-ALK (Homo sapiens), Q9UM73+Q9HC35 [D1203N]; settings: BaF3, time 3-5 weeks
[26] = test system: EML4-ALK (Homo sapiens), Q9UM73+Q9HC35 [F1174L]; settings: BaF3, dose 500.0 nmol/L, time 3-5 weeks
[27] = test system: EML4-ALK (Homo sapiens), Q9UM73+Q9HC35 [S1206A]; settings: BaF3, dose 200.0 nmol/L, time 3-5 weeks
[28] = test system: EML4-ALK (Homo sapiens), Q9UM73+Q9HC35 [L1198F]; settings: BaF3, dose 500.0 nmol/L, time 3-5 weeks
[29] = test system: EML4-ALK (Homo sapiens), Q9UM73+Q9HC35 [V1180L]; settings: BaF3, dose 500.0 nmol/L, time 3-5 weeks
[30] = cells; settings: Homo sapiens, BaF3, 72 h

COc1cc(N2CCC(N3CCN(C)CC3)CC2)ccc1Nc1ncc(Cl)c(Nc2ccccc2P(C)(C)=O)n1 [BRIGATINIB]
IC50 [1]: 138 nM | IC50 [2]: 218 nM | IC50 [3]: 816 nM | IC50 [4]: > 1000 nM | IC50 [5]: > 1000 nM | inhibition [6]: < 90% | inhibition [7]: < 90% | inhibition [8]: < 90% | inhibition [9]: < 90% | inhibition [10]: < 90% | inhibition [11]: < 90% | inhibition [12]: < 90% | inhibition [13]: < 90% | inhibition [14]: < 90% | inhibition [15]: < 90% | inhibition [16]: < 90% | inhibition [17]: < 90% | inhibition [18]: < 90% | inhibition [19]: < 90% | inhibition [20]: < 90% | inhibition [21]: < 90% | Cave [22]: 5.151 µM | IC90 [23]: 278 nM | IC90 [24]: 160 nM | IC90 [25]: 276 nM | inhibition [26]: Active | inhibition [27]: inactive | inhibition [28]: Active | inhibition [29]: Active | IC50 [30]: 31 nM
